Measurements taken from patent publication US20260256792A1, “TREATMENT OF CHRONIC SPONTANEOUS URTICARIA BY ADMINISTERING (R)-2-[3-[4-AMINO-3-(2-FLUORO-4-PHENOXY-PHENYL)PYRAZOLO[3,4-D]PYRIMIDIN-1-YL]PIPERIDINE-1-CARBONYL]-4-METHYL-4-[4-(OXETAN-3-YL)PIPERAZIN-1-YL]PENT-2-ENENITRILE” (priority 2023, published 2026).

System: moderate-to-severe chronic spontaneous urticaria (CSU)
Assay: Phase 2 CSU study: itch severity score over 7 days (ISS7)
Format: in vivo, human
Description: The study comprises a 12 week, randomized, double-blind, placebo-controlled, multi-center, dose-ranging efficacy and safety phase, followed by a 40 week open label extension (OLE) phase (see FIG. 1). The study consists of three phases and an optional OLE phase. […] Clinically, CSU is characterized by the spontaneous and recurrent appearance of pruritic hives. The proposed primary endpoints were the UAS7 at Week 12 in EU and EU reference countries and the ISS7 in the US. Regardless of where a participant was from, all assessments were the same. The UAS7 score is a composite score containing both the HSS7 and the ISS7. This allowed a global assessment of the two key components of urticaria: hives and itch. […] The UAS is a validated PRO measure. […] The daily UAS scores range from 0 to 6 point/day. […] Patients were to complete the UAS using the e-diary. […] The following secondary endpoints were to be analyzed using the same approach as for the primary endpoint: • Change from baseline in UAS7 at Week 4 • Change from baseline in UAS7 at Week 12 (for US and US reference countries) • Change from baseline in ISS7 at Week 12 (except US and US reference countries) • Change from baseline in HSS7 at Week 12

[1] = Week 2, 400 mg BID, Omalizumab-Naïve
[2] = Week 2, 400 mg BID, Prior Omalizumab Use
[3] = Week 2, 400 mg QPM, Omalizumab-Naïve
[4] = Week 2, 400 mg QPM, Prior Omalizumab Use
[5] = Week 2, 400 mg TID, Omalizumab-Naïve
[6] = Week 2, 400 mg TID, Prior Omalizumab Use
[7] = Week 3, 400 mg BID, Omalizumab-Naïve
[8] = Week 3, 400 mg BID, Prior Omalizumab Use
[9] = Week 3, 400 mg QPM, Omalizumab-Naïve
[10] = Week 3, 400 mg QPM, Prior Omalizumab Use
[11] = Week 3, 400 mg TID, Omalizumab-Naïve
[12] = Week 3, 400 mg TID, Prior Omalizumab Use
[13] = Week 4, 400 mg BID, Omalizumab-Naïve
[14] = Week 4, 400 mg BID, Prior Omalizumab Use
[15] = Week 4, 400 mg QPM, Omalizumab-Naïve
[16] = Week 4, 400 mg QPM, Prior Omalizumab Use
[17] = Week 4, 400 mg TID, Omalizumab-Naïve

For `CC(C)(C=C(C#N)C(=O)N1CCC[C@@H](n2nc(-c3ccc(Oc4ccccc4)cc3F)c3c(N)ncnc32)C1)N1CCN(C2COC2)CC1` [rilzabrutinib, (R)-2-[3-[4-amino-3-(2-fluoro-4-phenoxy-phenyl)pyrazolo[3,4-d]pyrimidin-1-yl]piperidine-1-carbonyl]-4-methyl-4-[4-(oxetan-3-yl)piperazin-1-yl]pent-2-enenitrile], the “ISS7 Percent change from baseline Mean (SD)” value (“ISS7 Percent change … (SD)” for short) [1] was −34.40 (31.27) %, the “ISS7 Percent change from baseline Median” value [1] was −25.06% and the “ISS7 Change from baseline Mean (SD)” value [2] was −7.00 (7.04). For the same compound, the “ISS7 Change from baseline Median” value [2] was −5.50, the “ISS7 Mean (SD)” value [2] was 10.83 (6.85) and the “ISS7 Median” value [2] was 13.50. For the same compound, the “ISS7 Percent change … (SD)” value [2] was −38.76 (40.94) %, the “ISS7 Percent change from baseline Median” value [2] was −28.17% and the “ISS7 Change from baseline Mean (SD)” value [3] was −3.84 (4.75). For the same compound, the “ISS7 Change from baseline Median” value [3] was −3.00, the “ISS7 Median” value [3] was 12.00 and the “ISS7 Percent change … (SD)” value [3] was −22.08 (27.52) %. For the same compound, the “ISS7 Percent change from baseline Median” value [3] was −17.11%, the “ISS7 Change from baseline Mean (SD)” value [4] was −12.00 (NC) and the “ISS7 Change from baseline Median” value [4] was −12.00. For the same compound, the “ISS7 Mean (SD)” value [4] was 9.00 (NC), the “ISS7 Median” value [4] was 9.00 and the “ISS7 Percent change … (SD)” value [4] was −57.14 (NC) %. For the same compound, the “ISS7 Percent change from baseline Median” value [4] was −57.14%, the “ISS7 Change from baseline Mean (SD)” value [5] was −7.29 (6.09) and the “ISS7 Change from baseline Median” value [5] was −7.00. For the same compound, the “ISS7 Mean (SD)” value [5] was 8.40 (5.82), the “ISS7 Median” value [5] was 8.00 and the “ISS7 Percent change … (SD)” value [5] was −46.12 (36.57) %. For the same compound, the “ISS7 Percent change from baseline Median” value [5] was −46.89%, the “ISS7 Mean (SD)” value [6] was 5.50 (6.95) and the “ISS7 Median” value [6] was 4.00. The “ISS7 Percent change … (SD)” value [6] was −69.74 (33.53) %, the “ISS7 Percent change from baseline Median” value [6] was −77.08% and the “ISS7 Change from baseline Mean (SD)” value [7] was −6.29 (5.74). For the same compound, the “ISS7 Change from baseline Median” value [7] was 5.00, the “ISS7 Mean (SD)” value [7] was 9.16 (6.09) and the “ISS7 Median” value [7] was 9.00. For the same compound, the “ISS7 Percent change … (SD)” value [7] was −40.77 (35.75) %, the “ISS7 Percent change from baseline Median” value [7] was −26.67% and the “ISS7 Change from baseline Mean (SD)” value [8] was −8.31 (8.28). The “ISS7 Change from baseline Median” value [8] was −9.00, the “ISS7 Mean (SD)” value [8] was 9.53 (7.26) and the “ISS7 Percent change … (SD)” value [8] was −44.35 (43.62) %. The “ISS7 Percent change from baseline Median” value [8] was −47.22%, the “ISS7 Change from baseline Mean (SD)” value [9] was −4.77 (4.84) and the “ISS7 Change from baseline Median” value [9] was −3.67. For the same compound, the “ISS7 Mean (SD)” value [9] was 11.60 (4.68), the “ISS7 Percent change … (SD)” value [9] was −27.79 (26.72) % and the “ISS7 Percent change from baseline Median” value [9] was −23.81%. The “ISS7 Change from baseline Mean (SD)” value [10] was −12.00 (NC), the “ISS7 Change from baseline Median” value [10] was −12.00 and the “ISS7 Mean (SD)” value [10] was 9.00 (NC). The “ISS7 Median” value [10] was 9.00, the “ISS7 Percent change … (SD)” value [10] was −57.14 (NC) % and the “ISS7 Percent change from baseline Median” value [10] was −57.14%. For the same compound, the “ISS7 Change from baseline Mean (SD)” value [11] was −7.34 (6.48), the “ISS7 Change from baseline Median” value [11] was −7.00 and the “ISS7 Mean (SD)” value [11] was 8.34 (5.42). For the same compound, the “ISS7 Median” value [11] was 8.40, the “ISS7 Percent change … (SD)” value [11] was −49.02 (33.06) % and the “ISS7 Percent change from baseline Median” value [11] was −48.53%. The “ISS7 Mean (SD)” value [12] was 5.50 (5.50), the “ISS7 Median” value [12] was 5.00 and the “ISS7 Percent change … (SD)” value [12] was −66.98 (26.87) %. For the same compound, the “ISS7 Percent change from baseline Median” value [12] was −64.58%, the “ISS7 Change from baseline Mean (SD)” value [13] was −6.94 (6.13) and the “ISS7 Change from baseline Median” value [13] was −5.83. The “ISS7 Mean (SD)” value [13] was 8.32 (6.02), the “ISS7 Median” value [13] was 7.00 and the “ISS7 Percent change … (SD)” value [13] was −44.87 (37.61) %. For the same compound, the “ISS7 Percent change from baseline Median” value [13] was −41.67%, the “ISS7 Change from baseline Mean (SD)” value [14] was −11.80 (8.35) and the “ISS7 Change from baseline Median” value [14] was −14.00. For the same compound, the “ISS7 Mean (SD)” value [14] was 6.80 (8.53), the “ISS7 Median” value [14] was 1.00 and the “ISS7 Percent change … (SD)” value [14] was −64.22 (45.05) %. For the same compound, the “ISS7 Percent change from baseline Median” value [14] was −93.33%, the “ISS7 Change from baseline Mean (SD)” value [15] was −4.99 (5.13) and the “ISS7 Change from baseline Median” value [15] was −4.00. The “ISS7 Mean (SD)” value [15] was 11.39 (4.79), the “ISS7 Percent change … (SD)” value [15] was −28.81 (27.96) % and the “ISS7 Percent change from baseline Median” value [15] was −23.81%. For the same compound, the “ISS7 Change from baseline Mean (SD)” value [16] was −13.00 (NC), the “ISS7 Change from baseline Median” value [16] was −13.00 and the “ISS7 Mean (SD)” value [16] was 8.00 (NC). The “ISS7 Median” value [16] was 8.00, the “ISS7 Percent change … (SD)” value [16] was −61.90 (NC) % and the “ISS7 Percent change from baseline Median” value [16] was −61.90%. The “ISS7 Change from baseline Mean (SD)” value [17] was −8.30 (5.13), the “ISS7 Change from baseline Median” value [17] was −8.00 and the “ISS7 Mean (SD)” value [17] was 7.79 (5.03). The “ISS7 Median” value [17] was 7.50, the “ISS7 Percent change … (SD)” value [17] was −51.09 (29.31) % and the “ISS7 Percent change from baseline Median” value [17] was −50.00%. For the same compound, the “ISS7 Change from baseline Mean (SD)” value (Week 4, 400 mg TID, Prior Omalizumab Use) was −10.83 (7.32).
